Holding throughout (format): in vivo
Holding throughout (details): 250 g/ha, evaluated after 13 days

Assay [1] concerns Echinochloa crus-galli (ECHCG). The assay is described as follows: Pre-emergence herbicide glasshouse test. In outline: (§1)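 Damage rated 13 days after spraying on a five-point scale (1=0–20% … 5=81–100%). Compound applied at 250 g/ha by default, as aqueous spray from acetone/water 50:50 plus 0.5% Tween 20, to pots one day post-sowing (pre) or after 8 days of growth (post). Plants kept at 24/16 °C, 14 h light, 65% humidity, watered twice daily.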

In assay [2] the test system is Ipomoea hederacea (IPOHE). The assay is described as follows: Pre-emergence herbicide glasshouse test. In outline:
as §1

In assay [3] the test system is Amaranthus palmeri (AMAPA). The assay can be described thus: Pre-emergence herbicide glasshouse test. The gist of the method:
as §1

Assay [4] concerns Amaranthus retoflexus (AMARE). The assay is described as follows: Pre-emergence herbicide glasshouse test. The gist of the method:
as §1

In assay [5] the test system is Echinochloa crus-galli (ECHCG). The assay is described as follows: Post-emergence herbicide glasshouse test. In outline:
as §1

The subject of assay [6] is Ipomoea hederacea (IPOHE). The assay is described as follows: Post-emergence herbicide glasshouse test. In outline: as §1
Assay [7] has as its system Amaranthus palmeri (AMAPA). The assay can be described thus: Post-emergence herbicide glasshouse test. The gist of the method:
as §1

The subject of assay [8] is Amaranthus retoflexus (AMARE). The assay can be described thus: Post-emergence herbicide glasshouse test. The gist of the method:
as §1

Take `Cn1cnc(Cn2cc(C(F)(F)F)nc2-c2cnc(Cl)c(F)c2)n1` [Compound 1.018]: the “percentage damage caused to the plant, ECHCG (five-point scale)” value in assay [1] and in assay [5] was 5 (5=81-100%) each time. Besides, the “percentage damage caused to the plant, IPOHE (five-point scale)” value is given as 5 (5=81-100%) in assay [2] and 4 (4=61-80%) in assay [6]. For the same molecule, the “percentage damage caused to the plant, AMAPA (five-point scale)” value in assay [3] and in assay [7] was 5 (5=81-100%) in each case. Further, the “percentage damage caused to the plant, AMARE (five-point scale)” value in assay [4] and in assay [8] was 5 (5=81-100%) in each case.

With `Cc1cc(Cn2cc(C(F)(F)F)nc2-c2ccc(S(C)(=O)=O)cc2)ns1` [Compound 1.161], the “percentage damage caused to the plant, ECHCG (five-point scale)” value in assay [1] and in assay [5] was 5 (5=81-100%) in each case. Also, the “percentage damage caused to the plant, IPOHE (five-point scale)” value in assay [2] and in assay [6] was 5 (5=81-100%) in each case. For the same molecule, the “percentage damage caused to the plant, AMAPA (five-point scale)” value in assay [3] and in assay [7] was 5 (5=81-100%) throughout. The “percentage damage caused to the plant, AMARE (five-point scale)” value in assay [4] and in assay [8] was 5 (5=81-100%) each time.

For `Cc1nc(Cn2cc(C(F)(F)F)nc2-c2ccc(C(F)(F)F)cc2)cs1` [Compound 1.010], the “percentage damage caused to the plant, ECHCG (five-point scale)” value in assay [1] and in assay [5] was 1 (1=0-20%) each time. In addition, the “percentage damage caused to the plant, IPOHE (five-point scale)” value is 2 (2=21-40%) in assay [2] and 3 (3=41-60%) in assay [6]. Also, the “percentage damage caused to the plant, AMAPA (five-point scale)” value in assay [3] is 2 (2=21-40%); in assay [7] it was 1 (1=0-20%). The “percentage damage caused to the plant, AMARE (five-point scale)” value is 5 (5=81-100%) in assay [4] and 2 (2=21-40%) in assay [8].

Consider `Cn1cnc(Cn2cc(C(F)(F)F)nc2-c2ccc(S(C)(=O)=O)cc2)n1` [Compound 1.170], for which the entries for the “percentage damage caused to the plant, ECHCG (five-point scale)” value in assay [1] and in assay [5] were 4 (4=61-80%) and 2 (2=21-40%), respectively. The “percentage damage caused to the plant, IPOHE (five-point scale)” value is listed as 5 (5=81-100%) in assay [2] and 3 (3=41-60%) in assay [6]. Further, the “percentage damage caused to the plant, AMAPA (five-point scale)” value in assay [3] and in assay [7] was 5 (5=81-100%) throughout. Moreover, the “percentage damage caused to the plant, AMARE (five-point scale)” value in assay [4] and in assay [8] was 5 (5=81-100%) each time.

With `CCc1cnc(Cn2cc(C(F)(F)F)nc2-c2ccc(Cl)nc2)o1` [Compound 1.092], the “percentage damage caused to the plant, ECHCG (five-point scale)” value in assay [1] and in assay [5] was 5 (5=81-100%) in each case. Moreover, the results for the “percentage damage caused to the plant, IPOHE (five-point scale)” value in assay [2] and in assay [6] were 5 (5=81-100%) and 4 (4=61-80%), respectively. Moreover, the “percentage damage caused to the plant, AMAPA (five-point scale)” value in assay [3] is recorded as 5 (5=81-100%); in assay [7] it was 4 (4=61-80%). The “percentage damage caused to the plant, AMARE (five-point scale)” value was 5 (5=81-100%) in assay [4] and 4 (4=61-80%) in assay [8].

Take `Cn1cnc(Cn2cc(C#N)nc2-c2ccc(F)c(F)c2)n1` [Compound 1.184]: the results for the “percentage damage caused to the plant, ECHCG (five-point scale)” value in assay [1] and in assay [5] were 5 (5=81-100%) and 4 (4=61-80%), respectively. Besides, the “percentage damage caused to the plant, IPOHE (five-point scale)” value in assay [2] and in assay [6] was 5 (5=81-100%) in each case. Moreover, the “percentage damage caused to the plant, AMAPA (five-point scale)” value in assay [3] and in assay [7] was 5 (5=81-100%) throughout. Also, the “percentage damage caused to the plant, AMARE (five-point scale)” value in assay [4] and in assay [8] was 5 (5=81-100%) in each case.

Regarding `FC(F)(F)c1cn(Cc2sc(Cl)nc2Cl)c(-c2ccc(Cl)nc2)n1` [Compound 1.148], the “percentage damage caused to the plant, ECHCG (five-point scale)” value in assay [1] and in assay [5] was 1 (1=0-20%) in each case. The “percentage damage caused to the plant, IPOHE (five-point scale)” value in assay [2] and in assay [6] was 1 (1=0-20%) each time. Further, the “percentage damage caused to the plant, AMAPA (five-point scale)” value in assay [3] and in assay [7] was 1 (1=0-20%) each time. Also, the “percentage damage caused to the plant, AMARE (five-point scale)” value in assay [4] and in assay [8] was 1 (1=0-20%) each time.

Turning to `Cc1cnc(Cn2cc(C(F)(F)F)nc2-c2ccc(Cl)nc2)o1` [Compound 1.094], the results for the “percentage damage caused to the plant, ECHCG (five-point scale)” value in assay [1] and in assay [5] were 5 (5=81-100%) and 4 (4=61-80%), respectively. In addition, the figures for the “percentage damage caused to the plant, IPOHE (five-point scale)” value in assay [2] and in assay [6] were 4 (4=61-80%) and 3 (3=41-60%), respectively. Besides, the “percentage damage caused to the plant, AMAPA (five-point scale)” value in assay [3] and in assay [7] was 5 (5=81-100%) in each case. For the same molecule, the “percentage damage caused to the plant, AMARE (five-point scale)” value in assay [4] and in assay [8] was 5 (5=81-100%) in each case.

As for `CS(=O)(=O)c1ccc(-c2nc(C(F)(F)F)cn2Cc2ccc(Cl)s2)cc1` [Compound 1.175], the “percentage damage caused to the plant, ECHCG (five-point scale)” value was 2 (2=21-40%) in assay [1] and 1 (1=0-20%) in assay [5]. The “percentage damage caused to the plant, IPOHE (five-point scale)” value in assay [2] is recorded as 1 (1=0-20%); in assay [6] it was 2 (2=21-40%). Besides, the “percentage damage caused to the plant, AMAPA (five-point scale)” value in assay [3] and in assay [7] was 4 (4=61-80%) throughout. Further, the “percentage damage caused to the plant, AMARE (five-point scale)” value is 5 (5=81-100%) in assay [4] and 4 (4=61-80%) in assay [8].

`Cc1noc(Cn2cc(C(F)(F)F)nc2-c2cnc(F)c(Cl)c2)n1` [Compound 1.151]: the “percentage damage caused to the plant, ECHCG (five-point scale)” value in assay [1] and in assay [5] was 3 (3=41-60%) each time. In addition, the “percentage damage caused to the plant, IPOHE (five-point scale)” value in assay [2] is 5 (5=81-100%); in assay [6] it was 4 (4=61-80%). Besides, the “percentage damage caused to the plant, AMAPA (five-point scale)” value in assay [3] and in assay [7] was 5 (5=81-100%) in each case. Further, the “percentage damage caused to the plant, AMARE (five-point scale)” value in assay [4] and in assay [8] was 5 (5=81-100%) each time.

Regarding `FC(F)n1ccc(Cn2cc(C(F)(F)F)nc2-c2ccc(Cl)nc2)n1` [Compound 1.051], the “percentage damage caused to the plant, ECHCG (five-point scale)” value in assay [1] and in assay [5] was 1 (1=0-20%) in each case. In addition, the “percentage damage caused to the plant, IPOHE (five-point scale)” value in assay [2] is 5 (5=81-100%); in assay [6], 4 (4=61-80%). In addition, the “percentage damage caused to the plant, AMAPA (five-point scale)” value in assay [3] and in assay [7] was 5 (5=81-100%) throughout. The “percentage damage caused to the plant, AMARE (five-point scale)” value in assay [4] and in assay [8] was 5 (5=81-100%) in each case.
